Results reported in patent US20200187502A1, “MICROBIOCIDAL OXADIAZOLE DERIVATIVES” (SYNGENTA PARTICIPATIONS AG, priority 2017, published 2020).

Assays:
[1] = test system: Glomerella lacenarium (Colletotrichum lacenarium); assay: Fungicidal activity, liquid culture, cucumber preventative (anthracnose); assay type: cell-based; settings: 20 ppm in the applied formulation, liquid culture in PDB, inhibition of growth measured photometrically 3 to 4 days after application, compared to untreated control, read-out: disease control
Procedure, shortened: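 Photometric measurement of fungal growth inhibition 3 to 4 days after application gives percent activity relative to untreated check. Conidia were suspended in potato dextrose broth and combined with DMSO compound solutions; incubation at 24° C.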

[2] = test system: Puccinia recondita f. Sp. Tritici; assay: Fungicidal activity, wheat leaf disc curative (brown rust); assay type: in vivo; settings: foliar, 200 ppm in the applied formulation, wheat leaf segments cv. Kanzler, curative (applied 1 day after inoculation), compared to untreated control, 6 to 8 days after application, read-out: disease control
Method: Leaf disks or leaf segments of various plant species are cut from plants grown in a greenhouse. The cut leaf disks or segments are placed in multiwell plates (24-well format) onto water agar. The leaf disks are sprayed with a test solution before (preventative) or after (curative) inoculation. Compounds to be tested are prepared as DMSO solutions (max. 10 mg/ml) which are diluted to the appropriate concentration with 0.025% Tween20 just before spraying. The inoculated leaf disks or segments are incubated under defined conditions (temperature, relative humidity, light, etc.) according to the respective test system. A single evaluation of disease level is carried out 3 to 14 days after inoculation, depending on the pathosystem. Percent disease control relative to the untreated check leaf disks or segments is then calculated.
Wheat leaf segments cv. Kanzler are placed on agar in multiwell plates (24-well format). The leaf segments are then inoculated with a spore suspension of the fungus. Plates were stored in darkness at 19° C. and 75% relative humidity. The formulated test compound diluted in water was applied 1 day after inoculation. The leaf segments were incubated at 19° C. and 75% relative humidity under a light regime of 12 hours light/12 hours darkness in a climate cabinet and the activity of a compound was assessed as percent disease control compared to untreated when an appropriate level of disease damage appears in untreated check leaf segments (6 to 8 days after application).
The following compounds at 200 ppm in the applied formulation give at least 80% disease control in this test when compared to untreated control leaf disks under the same conditions, which show extensive disease development.

[3] = test system: Puccinia recondita f. Sp. Tritici; assay: Fungicidal activity, wheat leaf disc preventative (brown rust); assay type: in vivo; settings: foliar, 200 ppm in the applied formulation, wheat leaf segments cv. Kanzler, compared to untreated control, 7 to 9 days after application, read-out: disease control
Procedure, shortened: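 Wheat cv. Kanzler leaf segments on agar were sprayed with formulated compound in water, then inoculated with spores 1 day later. Incubated at 19° C, 75% rh, 12 h light/12 h dark; percent disease control versus untreated scored 7 to 9 days after application.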

COCCCC(=O)N(Cc1ccc(-c2noc(C(F)(F)F)n2)s1)C(C)C [Compound 4.48, N-isopropyl-4-methoxy-N-[[5-[5-(trifluoromethyl)-1,2,4-oxadiazol-3-yl]-2-thienyl]methyl]butanamide]
≥ 80%: inhibition of growth at 20 ppm [1] | pest or weed control at 200 ppm [2] | pest or weed control at 200 ppm [3]

CC(C)N(Cc1ccc(-c2noc(C(F)(F)F)n2)s1)C(=O)CC#N [Compound 4.49, 2-cyano-N-isopropyl-N-[[5-[5-(trifluoromethyl)-1,2,4-oxadiazol-3-yl]-2-thienyl]methyl]acetamide]
≥ 80%: inhibition of growth at 20 ppm [1] | pest or weed control at 200 ppm [2] | pest or weed control at 200 ppm [3]

CC(C)N(Cc1ccc(-c2noc(C(F)(F)F)n2)s1)C(=O)CC(F)(F)F [Compound 4.50, 3,3,3-trifluoro-N-isopropyl-N-[[5-[5-(trifluoromethyl)-1,2,4-oxadiazol-3-yl]-2-thienyl]methyl]propanamide]
≥ 80%: inhibition of growth at 20 ppm [1] | pest or weed control at 200 ppm [2] | pest or weed control at 200 ppm [3]

CC(=O)NCC(=O)N(Cc1ccc(-c2noc(C(F)(F)F)n2)s1)C1CC1 [Compound 4.53, 2-acetamido-N-cyclopropyl-N-[[5-[5-(trifluoromethyl)-1,2,4-oxadiazol-3-yl]-2-thienyl]methyl]acetamide]
≥ 80%: inhibition of growth at 20 ppm [1] | pest or weed control at 200 ppm [2] | pest or weed control at 200 ppm [3]

N#CCC(=O)N(Cc1ccc(-c2noc(C(F)(F)F)n2)s1)C1CC1 [Compound 4.59, 2-cyano-N-cyclopropyl-N-[[5-[5-(trifluoromethyl)-1,2,4-oxadiazol-3-yl]-2-thienyl]methyl]acetamide]
≥ 80%: inhibition of growth at 20 ppm [1] | pest or weed control at 200 ppm [2] | pest or weed control at 200 ppm [3]

COCC(=O)N(Cc1ccc(-c2noc(C(F)(F)F)n2)s1)OCC(F)F [Compound 4.62, N-(2,2-difluoroethoxy)-2-methoxy-N-[[5-[5-(trifluoromethyl)-1,2,4-oxadiazol-3-yl]-2-thienyl]methyl]acetamide]
≥ 80%: inhibition of growth at 20 ppm [1] | pest or weed control at 200 ppm [2] | pest or weed control at 200 ppm [3]

CCCC(=O)N(Cc1ccc(-c2noc(C(F)(F)F)n2)s1)OCC(F)F [Compound 4.63, N-(2,2-difluoroethoxy)-N-[[5-[5-(trifluoromethyl)-1,2,4-oxadiazol-3-yl]-2-thienyl]methyl]butanamide]
≥ 80%: inhibition of growth at 20 ppm [1] | pest or weed control at 200 ppm [2] | pest or weed control at 200 ppm [3]

COCCCC(=O)N(Cc1ccc(-c2noc(C(F)(F)F)n2)s1)OCC(F)F [Compound 4.67, N-(2,2-difluoroethoxy)-4-methoxy-N-[[5-[5-(trifluoromethyl)-1,2,4-oxadiazol-3-yl]-2-thienyl]methyl]butanamide]
≥ 80%: inhibition of growth at 20 ppm [1] | pest or weed control at 200 ppm [2] | pest or weed control at 200 ppm [3]

CCN(CC)C(=O)N(CC)Cc1ccc(-c2noc(C(F)(F)F)n2)s1 [Compound 4.73, 1,1,3-triethyl-3-[[5-[5-(trifluoromethyl)-1,2,4-oxadiazol-3-yl]-2-thienyl]methyl]urea]
≥ 80%: inhibition of growth at 20 ppm [1] | pest or weed control at 200 ppm [2] | pest or weed control at 200 ppm [3]

CCN(Cc1ccc(-c2noc(C(F)(F)F)n2)s1)C(=O)N(CCOC)CCOC [Compound 4.74, 1-ethyl-3,3-bis(2-methoxyethyl)-1-[[5-[5-(trifluoromethyl)-1,2,4-oxadiazol-3-yl]-2-thienyl]methyl]urea]
≥ 80%: inhibition of growth at 20 ppm [1] | pest or weed control at 200 ppm [2] | pest or weed control at 200 ppm [3]

COCCN(CCOC)C(=O)N(C)Cc1ccc(-c2noc(C(F)(F)F)n2)s1 [Compound 4.80, 1,1-bis(2-methoxyethyl)-3-methyl-3-[[5-[5-(trifluoromethyl)-1,2,4-oxadiazol-3-yl]-2-thienyl]methyl]urea]
≥ 80%: inhibition of growth at 20 ppm [1] | pest or weed control at 200 ppm [2] | pest or weed control at 200 ppm [3]

CC(C)N(Cc1ccc(-c2noc(C(F)(F)F)n2)s1)C(=O)N(C)CC#N [Compound 4.82, 1-(cyanomethyl)-3-isopropyl-1-methyl-3-[[5-[5-(trifluoromethyl)-1,2,4-oxadiazol-3-yl]-2-thienyl]methyl]urea]
≥ 80%: inhibition of growth at 20 ppm [1] | pest or weed control at 200 ppm [2] | pest or weed control at 200 ppm [3]

COCCNC(=O)N(Cc1ccc(-c2noc(C(F)(F)F)n2)s1)C(C)C [Compound 4.84, 1-isopropyl-3-(2-methoxyethyl)-1-[[5-[5-(trifluoromethyl)-1,2,4-oxadiazol-3-yl]-2-thienyl]methyl]urea]
≥ 80%: inhibition of growth at 20 ppm [1] | pest or weed control at 200 ppm [2] | pest or weed control at 200 ppm [3]

CN(CC#N)C(=O)N(Cc1ccc(-c2noc(C(F)(F)F)n2)s1)C1CC1 [Compound 4.86, 1-(cyanomethyl)-3-cyclopropyl-1-methyl-3-[[5-[5-(trifluoromethyl)-1,2,4-oxadiazol-3-yl]-2-thienyl]methyl]urea]
≥ 80%: inhibition of growth at 20 ppm [1] | pest or weed control at 200 ppm [2] | pest or weed control at 200 ppm [3]

CCN(CC)C(=O)N(Cc1ccc(-c2noc(C(F)(F)F)n2)s1)C1CC1 [Compound 4.90, 1-cyclopropyl-3,3-diethyl-1-[[5-[5-(trifluoromethyl)-1,2,4-oxadiazol-3-yl]-2-thienyl]methyl]urea]
≥ 80%: inhibition of growth at 20 ppm [1] | pest or weed control at 200 ppm [2] | pest or weed control at 200 ppm [3]

COCCN(CCOC)C(=O)N(Cc1ccc(-c2noc(C(F)(F)F)n2)s1)C1CC1 [Compound 4.91, 1-cyclopropyl-3,3-bis(2-methoxyethyl)-1-[[5-[5-(trifluoromethyl)-1,2,4-oxadiazol-3-yl]-2-thienyl]methyl]urea]
≥ 80%: inhibition of growth at 20 ppm [1] | pest or weed control at 200 ppm [2] | pest or weed control at 200 ppm [3]

O=C(C1CC1)N(Cc1ccc(-c2noc(C(F)(F)F)n2)s1)OCC(F)F [Compound 5.7, N-(2,2-difluoroethoxy)-N-[[5-[5-(trifluoromethyl)-1,2,4-oxadiazol-3-yl]-2-thienyl]methyl]cyclopropanecarboxamide]
≥ 80%: inhibition of growth at 20 ppm [1] | pest or weed control at 200 ppm [2] | pest or weed control at 200 ppm [3]

CCN(Cc1ccc(-c2noc(C(F)(F)F)n2)s1)C(=O)CC1CC1 [Compound 5.9, 2-cyclopropyl-N-ethyl-N-[[5-[5-(trifluoromethyl)-1,2,4-oxadiazol-3-yl]-2-thienyl]methyl]acetamide]
≥ 80%: inhibition of growth at 20 ppm [1] | pest or weed control at 200 ppm [2] | pest or weed control at 200 ppm [3]

CCN(Cc1ccc(-c2noc(C(F)(F)F)n2)s1)C(=O)C1CCOC1 (stereo not drawn) [Compound 5.10, N-ethyl-N-[[5-[5-(trifluoromethyl)-1,2,4-oxadiazol-3-yl]-2-thienyl]methyl]tetrahydrofuran-3-carboxamide]
≥ 80%: inhibition of growth at 20 ppm [1] | pest or weed control at 200 ppm [2] | pest or weed control at 200 ppm [3]

CCN(Cc1ccc(-c2noc(C(F)(F)F)n2)s1)C(=O)C1CCC1 [Compound 5.11, N-ethyl-N-[[5-[5-(trifluoromethyl)-1,2,4-oxadiazol-3-yl]-2-thienyl]methyl]cyclobutanecarboxamide]
≥ 80%: inhibition of growth at 20 ppm [1] | pest or weed control at 200 ppm [2] | pest or weed control at 200 ppm [3]

CCN(Cc1ccc(-c2noc(C(F)(F)F)n2)s1)C(=O)C1(C)CC1 [Compound 5.12, N-ethyl-1-methyl-N-[[5-[5-(trifluoromethyl)-1,2,4-oxadiazol-3-yl]-2-thienyl]methyl]cyclopropanecarboxamide]
≥ 80%: inhibition of growth at 20 ppm [1] | pest or weed control at 200 ppm [2] | pest or weed control at 200 ppm [3]

CCN(Cc1ccc(-c2noc(C(F)(F)F)n2)s1)C(=O)C1CCCO1 (stereo not drawn) [Compound 5.13, N-ethyl-N-[[5-[5-(trifluoromethyl)-1,2,4-oxadiazol-3-yl]-2-thienyl]methyl]tetrahydrofuran-2-carboxamide]
≥ 80%: inhibition of growth at 20 ppm [1] | pest or weed control at 200 ppm [2] | pest or weed control at 200 ppm [3]

CN(Cc1ccc(-c2noc(C(F)(F)F)n2)s1)C(=O)C1CCCO1 (stereo not drawn) [Compound 5.22, N-methyl-N-[[5-[5-(trifluoromethyl)-1,2,4-oxadiazol-3-yl]-2-thienyl]methyl]tetrahydrofuran-2-carboxamide]
≥ 80%: inhibition of growth at 20 ppm [1] | pest or weed control at 200 ppm [2] | pest or weed control at 200 ppm [3]

CN(Cc1ccc(-c2noc(C(F)(F)F)n2)s1)C(=O)C1(C)COC1 [Compound 5.23, N,3-dimethyl-N-[[5-[5-(trifluoromethyl)-1,2,4-oxadiazol-3-yl]-2-thienyl]methyl]oxetane-3-carboxamide]
≥ 80%: inhibition of growth at 20 ppm [1] | pest or weed control at 200 ppm [2] | pest or weed control at 200 ppm [3]
